Experimental data taken from US11155559B2, “Sulfonyl-substituted isoquinolines as inhibitors of RHO kinase and hERG potassium channel activity” (CHINA RESOURCES PHARMACEUTICAL HOLDINGS COMPANY LIMITED, priority 2017, dated 2021).

Tests used:
[1] = tested on: bleomycin-induced rat pulmonary fibrosis; test: Pharmacodynamics in rats: bleomycin-induced unilateral (left lung) pulmonary fibrosis model; assay type: in vivo, SD rats; settings: for Percentage of pulmonary fibrosis score vs. model group (FIG. 2): Ashcraft score, boundary at 3 (3 or below vs. 4 or above)
Experimental: Animals in each group started to be administered orally by gavage on the 8th day of modeling for a total of 14 days. All animals were euthanized the next day after the last administration, and the left lung was taken, and the same amount of formalin solution was infused into the lungs, the lung fibrosis score was analyzed by weighing and lung pathology.
Masson Trichrome staining was used for pathological evaluation of pulmonary fibrosis lesion area, pulmonary fibrosis pathology score, and fibrosis grade parameters for left lung pulmonary fibrosis lesions. […] (FIG. 2).

hERG potassium channel = hERG potassium channel (Homo sapiens, UniProt Q12809); test: hERG experiment (QPatch HTX whole-cell, CHO-hERG cells); assay type: cell-based; settings: room temperature, tested at 0.24 to 30.00 μM, read-out: hERG inhibitory activity (IC50)
hERG potassium channel, sequence (Q12809 whole entry): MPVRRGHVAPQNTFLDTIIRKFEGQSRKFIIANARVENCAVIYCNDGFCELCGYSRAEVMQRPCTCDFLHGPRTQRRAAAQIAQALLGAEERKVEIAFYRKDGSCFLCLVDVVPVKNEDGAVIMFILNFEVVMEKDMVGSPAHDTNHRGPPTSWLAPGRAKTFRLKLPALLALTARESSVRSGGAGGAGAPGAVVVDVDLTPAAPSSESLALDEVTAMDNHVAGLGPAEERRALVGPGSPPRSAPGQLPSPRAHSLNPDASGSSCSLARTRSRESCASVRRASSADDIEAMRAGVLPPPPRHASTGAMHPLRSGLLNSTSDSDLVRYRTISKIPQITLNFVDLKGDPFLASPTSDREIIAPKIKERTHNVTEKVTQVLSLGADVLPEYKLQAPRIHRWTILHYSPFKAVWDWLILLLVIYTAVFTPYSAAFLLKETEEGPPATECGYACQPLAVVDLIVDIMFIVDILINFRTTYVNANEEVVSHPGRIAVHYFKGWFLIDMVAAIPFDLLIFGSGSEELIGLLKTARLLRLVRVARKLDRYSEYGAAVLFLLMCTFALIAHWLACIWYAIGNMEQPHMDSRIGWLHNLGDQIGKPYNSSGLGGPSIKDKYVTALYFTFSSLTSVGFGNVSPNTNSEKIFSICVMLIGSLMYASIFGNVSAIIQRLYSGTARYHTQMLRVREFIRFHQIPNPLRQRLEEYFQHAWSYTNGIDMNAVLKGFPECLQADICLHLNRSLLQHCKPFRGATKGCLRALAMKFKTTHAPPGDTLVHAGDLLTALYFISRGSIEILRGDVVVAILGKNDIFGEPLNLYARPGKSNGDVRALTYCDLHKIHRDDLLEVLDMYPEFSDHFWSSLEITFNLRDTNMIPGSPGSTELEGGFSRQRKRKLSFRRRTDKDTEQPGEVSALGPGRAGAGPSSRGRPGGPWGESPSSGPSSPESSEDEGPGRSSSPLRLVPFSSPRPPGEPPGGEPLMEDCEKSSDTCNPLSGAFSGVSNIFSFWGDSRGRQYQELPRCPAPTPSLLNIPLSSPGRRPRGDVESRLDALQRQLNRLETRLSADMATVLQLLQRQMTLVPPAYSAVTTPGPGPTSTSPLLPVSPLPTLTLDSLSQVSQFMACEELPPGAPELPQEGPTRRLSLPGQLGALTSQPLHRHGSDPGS
Experimental: The cells stably expressing hERG potassium channel used in the experiment were derived from CHO-hERE of Aviva Biosciences, CHO-hERG was cultured under 5% CO2 at 37° C. hERGQPatch^HTX experiments were performed at room temperature. QPatch AssaySoftware 5.2 (Sophion Bioscience) software was used to establish whole-cell protocols, voltage stimulation protocols and compound detection protocols. First, the voltage stimulation was repeated for 30 times, this section was used as the baseline area for subsequent analysis, then 5 μL extracellular fluid was added and repeated three times. The effect concentrations of each compound were added one after the other, repeating three times by the addition of 5 μL volume. The cells were incubated at each test concentration for at least 5 mins. During the entire recording process, each indicator must meet the data analysis acceptance criteria, if the criterion is not met, the cell will not be counted in the analysis range, and the compound will be tested again, the above recording process is automatically operated by Qpatch analysis software. […] In each complete current record, based on the percentage of peak current in the negative control group, the percentage inhibition of the effect concentration of each compound can be calculated. […]

ROCK protein kinase = test: Evaluation of ROCK protein kinase inhibitory activity in vitro (33P-ATP filter-binding); assay type: biochemical; settings: 1 nM ROCK, 20 μM Long S6 Kinase substrate peptide, room temperature, two hours
Experimental: Evaluation of ROCK Protein Kinase Inhibitory Activity In Vitro
Experimental object: detecting the inhibitory IC50 value of ROCK protein kinase of the compounds.
Assay buffer solution: 20 mM Hepes (pH 7.5), 10 mM MgCl2, 1 mM EGTA, 0.02% Brij35, 0.02 mg/ml BSA, 0.1 mM Na3VO4, 2 mM DTT, 1% DMSO
ROCK protein kinase substrate Long S6 Kinase substrate peptide was added to the freshly prepared buffer solution at a concentration of 20 μM. Then 1 nM ROCK protein kinase was added and stirred evenly. […] After pre-incubating at room temperature for 20 minutes, ^33P-ATP (radiation intensity 10 μCi/μL) was added to initiate the reaction and the reaction was carried out at room temperature for two hours. […] The Filter-Binding method was used to detect radiation intensity.
The protein kinase inhibitory activity of the compound was expressed as the residual protein kinase activity of a relatively blank substrate (DMSO alone). IC50 values and curves were calculated using Prism software package (GraphPad Software, san Diego Calif., USA).

[2] = Evaluation of pharmacokinetics in rats; assay type: in vivo; settings: rat, plasma, male SD rats, single administration, groups 2 mg/kg intravenous and 10 mg/kg oral gavage, route for this parameter not stated
Experimental: Evaluation of Pharmacokinetics in Rats Male SD rats were used as test animals, after a single administration, the blood concentrations of the compounds were measured and the pharmacokinetic behavior was evaluated. Six healthy adult male SD rats (7-10 weeks of age, purchased from Shanghai Slack Experimental Animal Co., Ltd.) were randomly divided into two groups of three animals each, and one group was administered the test compound intravenously at 2 mg/kg, the other group was administered orally by gavage the test compound at 10 mg/kg. The vehicle in the intravenous administration group and the gastric administration group was both 10% DMSO+18% HP-β-CD+72% physiological saline. Blood samples were collected from the animals in the intravenous group at 0.0833, 0.25, 0.5, 1, 2, 4, 8, and 24 hours after the administration, and blood samples were collected from the animals in the gavage group at 0.25, 0.5, 1, 2, 4, 6, 8 and 24 hours after the administration. LCMS-MS method was used to determine the plasma drug concentration. WinNonlin™ version 6.3 (Pharsight Mountain View, Calif.) pharmacokinetic software was used to calculate the relevant pharmacokinetic parameters by non-compartment model logarithmic trapezoid method.

[3] = positive drugs: nintedanib 100 and 30 mg/kg/d-qd, pirfenidone 50 and 15 mg/kg/d-bid, oral gavage, 14 days, p<0.05

With `O=S(=O)(c1cccc2cnccc12)N1CCCNCC1` [Fasudil, reference compound] as the molecule, how does the “Pulmonary fibrosis Ashcraft score vs. model group (FIG. 1)” value ([1]; oral, once a day at 25 mg/kg, 14 consecutive days, p<0.001) read?
The value was “achieved the same effect as the positive drug in inhibiting pulmonary fibrosis”.

For `Cc1cncc2cccc(S(=O)(=O)N3C[C@@H]4CCN[C@@H]4C3)c12` [Embodiment 38 (WO2015/165341), reference compound], which IC50 (hERG potassium channel) is on record?
The IC50 was 4600 nM.

Which IC50 (ROCK protein kinase) does the source give for `CC1C2NCCC2CN1S(=O)(=O)c1cccc2cnccc12` (stereo not shown) [embodiment 7-2] here?
Its IC50 is 15 nM.

With `CC1C2NCCC2CN1S(=O)(=O)c1cccc2cncc(F)c12` (stereo not shown) [embodiment 6-2] as the molecule, how does the IC50 (ROCK protein kinase) read?
The IC50 was 8 nM.

With `Cc1cncc2cccc(S(=O)(=O)N3CC4CCNC4C3C)c12` (stereo not shown) [embodiment 8] as the molecule, how does the IC50 (ROCK protein kinase) read?
Its IC50 is 18 nM.

For `Cc1ccc(=O)n(-c2ccccc2)c1` [pirfenidone, reference compound], which “Percentage of pulmonary fibrosis score vs. model group (FIG. 2)” value ([1]; oral gavage, 14 days) is on record?
The value was “significant differences compared with the model group”.

And the “Pulmonary fibrosis Ashcraft score vs. model group (FIG. 1)” value [1, 3]?
The value was “significantly improved the degree of pulmonary fibrosis”.

Which IC50 (ROCK protein kinase) does the source give for `CC1C2NCCC2CN1S(=O)(=O)c1cccc2c(O)ncc(F)c12` (stereo not shown) [embodiment 10] here?
Its IC50 is 783 nM.

With `O=S(=O)(c1cccc2cncc(F)c12)N1CC2CCNC2C12CC2` (stereo not shown) [embodiment 3] as the molecule, how does the IC50 (ROCK protein kinase) read?
The IC50 was 93 nM.

Which IC50 (ROCK protein kinase) does the source give for `CC1C2NCCC2CN1S(=O)(=O)c1cccc2cnccc12` (stereo not shown) [embodiment 7] here?
Its IC50 is 28 nM.

With `CC1C2NCCC2CN1S(=O)(=O)c1cccc2cnccc12` (stereo not shown) [embodiment 7-1] as the molecule, how does the IC50 (ROCK protein kinase) read?
Its IC50 is 63 nM.

With `O=S(=O)(c1cccc2cncc(Cl)c12)N1CC2CCNC2C12CC2` (stereo not shown) [embodiment 2] as the molecule, how does the IC50 (ROCK protein kinase) read?
Its IC50 is 32 nM.

Which IC50 (ROCK protein kinase) does the source give for `O=S(=O)(c1cccc2cnccc12)N1CC2CCNC2C12CC2` (stereo not shown) [embodiment 1] here?
The IC50 was 20 nM.

For `CC1C2NCCC2CN1S(=O)(=O)c1cccc2cncc(F)c12` (stereo not shown) [embodiment 6], which IC50 (ROCK protein kinase) is on record?
Its IC50 is 12 nM.

What about the “Percentage of pulmonary fibrosis score vs. model group (FIG. 2)” value ([1]; oral gavage, 14 days) of the same molecule?
Its value is “significant statistical difference compared with the model group”.

What about the “Lowest dose effective in inhibiting pulmonary fibrosis” value ([1]; administered continuously for two weeks) of the same molecule?
The value was ≤ 1 mg/kg BID.

What about the “Pulmonary fibrosis-improving effect compared with reference drugs” value ([1]; compared with nintedanib, pirfenidone and fasudil) of the same molecule?
Its value is “comparable to that of nintedanib, pirfenidone, and fasudil at lower doses”.

And the “Pulmonary fibrosis Ashcraft score vs. model group (FIG. 1)” value ([1]; oral, once a day at 3 mg/kg, 14 days, consistent with the same dose twice daily)?
The value was “significant effect on inhibiting pulmonary fibrosis”.

And the “Pulmonary fibrosis Ashcraft score vs. model group (FIG. 1)” value ([1]; oral, twice a day at three doses (1, 3, 10 mg/kg/d-bid), 14 consecutive days, p<0.001)?
The value was “significant inhibition of pulmonary fibrosis”.

What about the IC50 (hERG potassium channel) of the same molecule?
The IC50 was > 30000 nM.

And the clearance ([2]; read-out: Clearance rate (Cl))?
Its clearance is 43.8 mL/min/kg.

What about the half-life ([2]; read-out: Half-life period (T1/2) (converted)) of the same molecule?
Its half-life is 1.12 h.

Which IC50 (ROCK protein kinase) does the source give for `CC1C2NCCC2CN1S(=O)(=O)c1cccc2cncc(F)c12` (stereo not shown) [embodiment 6-1] here?
The IC50 was 65 nM.

What does the source list for `COC(=O)c1ccc2c(c1)NC(=O)/C2=C(\Nc1ccc(N(C)C(=O)CN2CCN(C)CC2)cc1)c1ccccc1` [nintedanib, reference compound]?
Percentage of pulmonary fibrosis score vs. model group (FIG. 2) ([1]; oral gavage, 14 days): significant differences compared with the model group; Pulmonary fibrosis Ashcraft score vs. model group (FIG. 1) [1, 3]: significantly improved the degree of pulmonary fibrosis
